Reference: patent publication US20250101046A1 (TAE Life Sciences LLC, priority 2023, published 2025)

Experiments:
[1] = Solubility in water / need of fructose to aid solubility; format: physicochemical
intracranial tumor = conditions: BNCT, beam directed to surgically exposed intracranial tumor; cited from earlier work

requirement of fructose to aid solubility [1]	solubility in water ([1]; water)	threshold of solubility compared to BPA ([1]; with fructose, versus BPA)	Molecule	5-year survival rate (intracranial tumor)
does require fructose	very soluble	much higher compared to BPA	COc1ccc(C[C@H](N)C(=O)O)cc1[10B](O)O [TC221, (S)-2-(amino)-3-(4-methoxy-3-boronic acid)propionic acid]	–
–	–	–	undecahydro-closo-dodecaboratethiol [BSH]	58%
